# Activity calls are given as the source filed them.
# Columns and labels:
# INS1 = assay: INS-1E survival protection against cytokine death – cell-based, luminescence, retest, dose response (AID 449756); assay type: functional; conditions: Rattus norvegicus;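 also: cell death triggered by IL-1 beta plus TNF-alpha plus IFN-gamma mixture; protective hits raise ATP signal compared with cytokine alone wells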
# [1] = molecular target: Luciferin 4-monooxygenase (Photinus pyralis, UniProt P08659); assay: inhibition of purified Photinus pyralis luciferase – biochemical, luminescence, dose response (AID 1891)
# Chain of Luciferin 4-monooxygenase (P08659 whole entry): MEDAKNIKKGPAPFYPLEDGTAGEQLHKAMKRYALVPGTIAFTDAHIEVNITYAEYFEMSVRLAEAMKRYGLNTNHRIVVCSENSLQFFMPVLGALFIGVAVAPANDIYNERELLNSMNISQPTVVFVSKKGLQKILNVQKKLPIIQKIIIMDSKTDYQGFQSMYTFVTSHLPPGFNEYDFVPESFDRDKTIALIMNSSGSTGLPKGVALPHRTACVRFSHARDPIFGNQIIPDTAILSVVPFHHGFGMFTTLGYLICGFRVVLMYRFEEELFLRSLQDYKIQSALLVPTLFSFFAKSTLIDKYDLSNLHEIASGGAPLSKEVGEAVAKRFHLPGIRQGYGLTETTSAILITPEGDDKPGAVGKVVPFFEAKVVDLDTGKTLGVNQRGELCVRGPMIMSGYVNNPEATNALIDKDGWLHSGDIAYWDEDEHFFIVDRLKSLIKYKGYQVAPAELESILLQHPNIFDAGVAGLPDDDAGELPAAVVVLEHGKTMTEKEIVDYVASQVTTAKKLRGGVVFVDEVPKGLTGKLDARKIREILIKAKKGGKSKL
# [2] = Luminescence Cell-Based Dose Confirmation HTS to Identify Inhibitors of Platelet Dense Granule Release. [Related pubchem assays: 1663 (Primary HTS), 1678 (Summary of Project)]; assay type: functional
# [3] = molecular target: T1, Corticotropin-releasing factor receptor 2/Corticotropin-releasing factor-binding protein (Homo sapiens, UniProt P24387+Q13324); assay: Dose Response confirmation of uHTS hits for small molecule antagonists of the CRF-binding protein and CRF-R2 receptor complex.; assay type: functional; conditions: read-out: IC50_Mean
# T1 sequence (Q13324 whole entry): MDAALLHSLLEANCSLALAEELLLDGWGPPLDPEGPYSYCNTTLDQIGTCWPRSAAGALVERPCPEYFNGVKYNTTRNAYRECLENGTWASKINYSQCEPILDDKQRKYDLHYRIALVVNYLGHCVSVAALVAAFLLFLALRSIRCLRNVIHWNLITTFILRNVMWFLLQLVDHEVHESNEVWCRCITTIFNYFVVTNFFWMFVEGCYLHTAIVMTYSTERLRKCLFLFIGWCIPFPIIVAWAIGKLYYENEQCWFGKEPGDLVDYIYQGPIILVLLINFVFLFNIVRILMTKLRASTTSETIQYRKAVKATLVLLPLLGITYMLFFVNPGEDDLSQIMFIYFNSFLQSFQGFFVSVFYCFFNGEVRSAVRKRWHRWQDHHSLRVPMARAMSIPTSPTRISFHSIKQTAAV
# T1 sequence (P24387 whole entry): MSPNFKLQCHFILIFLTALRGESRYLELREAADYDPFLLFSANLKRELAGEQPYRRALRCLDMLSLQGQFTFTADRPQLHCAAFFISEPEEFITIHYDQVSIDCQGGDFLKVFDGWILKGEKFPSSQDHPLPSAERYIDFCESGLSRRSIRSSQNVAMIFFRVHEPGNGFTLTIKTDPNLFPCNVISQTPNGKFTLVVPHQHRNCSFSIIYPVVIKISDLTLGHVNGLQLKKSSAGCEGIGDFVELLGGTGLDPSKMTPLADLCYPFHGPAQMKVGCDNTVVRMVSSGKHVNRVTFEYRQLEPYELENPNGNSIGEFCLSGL
# [4] = molecular target: T1, Corticotropin-releasing factor receptor 2/Corticotropin-releasing factor-binding protein; assay: activators of CRF receptor 2 with binding protein – uHTS hits, confirmation (AID 602473); assay type: functional; conditions: read-out: EC50_Mean
# Cytochrome P450 3A4 = Cytochrome P450 3A4 (Homo sapiens, UniProt P08684);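 also: CYP3A4 tested as one member of a cytochrome P450 panel screen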
# Chain of Cytochrome P450 3A4 (P08684 whole entry): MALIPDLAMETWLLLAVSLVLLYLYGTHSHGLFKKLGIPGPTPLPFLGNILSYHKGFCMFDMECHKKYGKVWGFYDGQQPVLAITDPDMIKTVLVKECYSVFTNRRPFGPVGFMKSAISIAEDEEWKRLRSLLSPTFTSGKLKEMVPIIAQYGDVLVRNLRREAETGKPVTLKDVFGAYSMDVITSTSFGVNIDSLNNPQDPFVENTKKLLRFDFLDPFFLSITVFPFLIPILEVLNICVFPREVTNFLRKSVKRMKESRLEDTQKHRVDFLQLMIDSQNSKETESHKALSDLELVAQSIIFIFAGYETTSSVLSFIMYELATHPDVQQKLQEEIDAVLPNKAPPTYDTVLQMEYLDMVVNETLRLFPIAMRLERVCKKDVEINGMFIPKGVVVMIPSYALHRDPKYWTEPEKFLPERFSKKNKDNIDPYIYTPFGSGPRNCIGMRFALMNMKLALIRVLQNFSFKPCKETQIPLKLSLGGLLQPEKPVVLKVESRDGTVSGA
# Cytochrome P450 1A2 = molecular target: T2, Cytochrome P450 1A2 (Homo sapiens, UniProt P05177);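 also: PubChem cytochrome P450 panel assay, CYP1A2 panel member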
# T2 sequence (P05177 whole entry): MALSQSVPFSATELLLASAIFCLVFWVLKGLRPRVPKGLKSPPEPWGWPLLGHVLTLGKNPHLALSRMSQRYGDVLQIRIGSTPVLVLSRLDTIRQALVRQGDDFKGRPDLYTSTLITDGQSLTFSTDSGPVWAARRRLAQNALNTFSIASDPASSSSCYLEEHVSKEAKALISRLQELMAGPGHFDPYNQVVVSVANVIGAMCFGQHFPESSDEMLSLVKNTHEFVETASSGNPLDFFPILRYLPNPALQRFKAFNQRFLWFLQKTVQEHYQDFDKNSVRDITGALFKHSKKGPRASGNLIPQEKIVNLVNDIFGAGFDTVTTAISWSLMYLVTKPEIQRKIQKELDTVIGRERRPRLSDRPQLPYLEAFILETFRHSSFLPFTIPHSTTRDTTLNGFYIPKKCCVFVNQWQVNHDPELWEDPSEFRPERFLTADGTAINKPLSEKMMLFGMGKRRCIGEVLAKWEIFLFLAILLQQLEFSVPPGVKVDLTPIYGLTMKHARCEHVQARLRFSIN
# Cytochrome P450 2C9 = Cytochrome P450 2C9 (Homo sapiens, UniProt P11712)
# Chain of Cytochrome P450 2C9 (P11712 whole entry): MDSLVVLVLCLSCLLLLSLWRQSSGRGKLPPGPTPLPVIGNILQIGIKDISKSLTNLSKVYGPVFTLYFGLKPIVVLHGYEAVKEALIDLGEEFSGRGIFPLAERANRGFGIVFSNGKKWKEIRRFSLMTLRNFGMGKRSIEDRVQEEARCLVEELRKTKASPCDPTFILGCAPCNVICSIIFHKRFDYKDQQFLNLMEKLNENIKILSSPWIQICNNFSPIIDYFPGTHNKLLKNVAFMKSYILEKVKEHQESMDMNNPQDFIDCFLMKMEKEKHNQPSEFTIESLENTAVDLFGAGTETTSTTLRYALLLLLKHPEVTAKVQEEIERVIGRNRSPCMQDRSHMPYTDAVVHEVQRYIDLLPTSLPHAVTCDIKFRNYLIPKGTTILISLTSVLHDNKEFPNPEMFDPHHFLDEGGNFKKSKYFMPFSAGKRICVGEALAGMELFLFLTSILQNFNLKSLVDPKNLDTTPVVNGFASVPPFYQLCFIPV
# [5] = viability of uninfected HEp-2 cells – cell-based, HTS, cytotoxicity control for RSV inhibitor project, dose response (AID 2410); assay type: functional; conditions: human respiratory syncytial virus
# Cytochrome P450 2C19 = Cytochrome P450 2C19 (Homo sapiens, UniProt P33261); assay: Cytochrome panel assay with activity outcomes. Panel member name: p450-cyp2c19 Compounds with AC50 equal or less than 10 uM are considered active; assay type: functional
# Chain of Cytochrome P450 2C19 (P33261 whole entry): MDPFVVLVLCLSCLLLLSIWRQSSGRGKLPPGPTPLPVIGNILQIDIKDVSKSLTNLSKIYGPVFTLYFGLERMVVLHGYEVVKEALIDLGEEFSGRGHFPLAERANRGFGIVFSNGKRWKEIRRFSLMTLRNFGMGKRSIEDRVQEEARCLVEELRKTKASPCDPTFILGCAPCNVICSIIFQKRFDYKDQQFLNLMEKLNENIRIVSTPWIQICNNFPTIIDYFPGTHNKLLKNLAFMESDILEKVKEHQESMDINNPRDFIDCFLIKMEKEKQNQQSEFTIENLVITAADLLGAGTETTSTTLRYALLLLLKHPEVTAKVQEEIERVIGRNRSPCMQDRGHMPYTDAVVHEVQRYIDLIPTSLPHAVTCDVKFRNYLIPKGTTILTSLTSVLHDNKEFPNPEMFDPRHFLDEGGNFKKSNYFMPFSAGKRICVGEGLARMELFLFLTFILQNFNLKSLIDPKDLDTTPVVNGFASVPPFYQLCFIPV
# Cytochrome P450 2D6 = Cytochrome P450 2D6 (Homo sapiens, UniProt P10635);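 also: CYP2D6 member of a cytochrome P450 panel assay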
# Chain of Cytochrome P450 2D6 (P10635 whole entry): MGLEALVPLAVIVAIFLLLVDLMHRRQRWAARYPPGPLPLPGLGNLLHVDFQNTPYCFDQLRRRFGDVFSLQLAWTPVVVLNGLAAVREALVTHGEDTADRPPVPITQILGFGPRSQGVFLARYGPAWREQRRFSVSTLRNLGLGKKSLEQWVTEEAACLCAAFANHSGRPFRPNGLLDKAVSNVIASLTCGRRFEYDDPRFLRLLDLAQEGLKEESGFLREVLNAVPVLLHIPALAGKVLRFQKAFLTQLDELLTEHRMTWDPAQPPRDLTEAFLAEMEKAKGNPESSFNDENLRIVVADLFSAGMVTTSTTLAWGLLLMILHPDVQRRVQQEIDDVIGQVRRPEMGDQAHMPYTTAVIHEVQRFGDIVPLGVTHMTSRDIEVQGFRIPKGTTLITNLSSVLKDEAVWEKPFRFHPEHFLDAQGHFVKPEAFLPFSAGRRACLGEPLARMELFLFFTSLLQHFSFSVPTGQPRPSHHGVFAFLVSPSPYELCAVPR
# Streptokinase A = molecular target: T3, Streptokinase A (Streptococcus pyogenes serotype M1, UniProt P10520); assay: viability-normalized secreted streptokinase activity reduction – plasminogen activation absorbance, OD405, dose response (AID 1914); assay type: functional, Streptococcus pyogenes M1 GAS;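 also: secreted streptokinase activity via plasminogen activation per viability signal from cell pellet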
# T3 sequence (P10520 whole entry): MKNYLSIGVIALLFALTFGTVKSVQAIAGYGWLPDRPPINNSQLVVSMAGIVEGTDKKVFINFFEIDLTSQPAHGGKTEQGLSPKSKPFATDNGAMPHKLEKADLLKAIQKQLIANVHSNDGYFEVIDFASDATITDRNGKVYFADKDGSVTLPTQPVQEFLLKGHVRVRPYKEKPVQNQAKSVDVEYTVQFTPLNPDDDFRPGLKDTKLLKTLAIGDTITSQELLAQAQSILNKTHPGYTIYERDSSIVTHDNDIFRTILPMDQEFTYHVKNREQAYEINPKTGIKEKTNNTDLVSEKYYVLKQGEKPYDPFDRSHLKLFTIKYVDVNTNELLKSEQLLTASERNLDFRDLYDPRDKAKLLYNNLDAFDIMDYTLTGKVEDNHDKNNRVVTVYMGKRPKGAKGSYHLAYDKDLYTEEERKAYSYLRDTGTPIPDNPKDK
# [6] = test system: Streptococcus sp. 'group A'; assay: Streptococcus pyogenes SK(-)GAS viability under kanamycin – luminescence, BacTiterGlo, confirmation, counter-screen for streptokinase expression inhibitor project, dose response (AID 1900); assay type: functional, organism-based
# Streptococcus = assay: GAS UMAA2166 growth inhibition – luminescence, BacTiterGlo, counter-screen for streptokinase expression inhibitor project, dose response (AID 1915); assay type: functional, organism-based;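 also: potency for reduction of bacterial viability or growth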
# [7] = Luminescence Cell-Based Dose Retest to Confirm Inhibitors of Cancer Stem Cells. [Related pubchem assays (depositor defined):AID2717, AID2721]; assay type: functional; conditions: Homo sapiens
smiles,measurement,setting,value
O=[N+]([O-])c1ccc(N2CCN(C(S)=Nc3ccc(F)cc3)CC2)cc1,AC50,INS1,33.9 µM (active)
COc1ccc(-c2csc(CCn3nc(C)cc3C)n2)cc1,EC50,[1],> 112 µM (not active)
same,EC50,[2],> 112 µM (not active)
CCOc1ccc(NC(=O)CSc2ccc3nnc(-c4cccnc4)n3n2)cc1,IC50,[3],> 47.1 µM (inactive)
same,EC50,[4],> 53 µM (inactive)
Cc1cc(NC(=O)c2cc3ncc(Br)cn3n2)no1,EC50,[1],> 112 µM (not active)
same,EC50,[2],> 112 µM (not active)
Cc1cccc(NC(=O)Cn2c(/C=C/c3ccccc3)nc3ccccc32)c1,AC50,INS1,30.6 µM (active)
O=C(COC(=O)C1CCN(S(=O)(=O)c2ccc3c(c2)OCCO3)CC1)NC1CCS(=O)(=O)C1 (configuration not stated),IC50,[3],> 47.1 µM (inactive)
same,EC50,[4],> 53 µM (inactive)
CN(C)C(=O)c1ccc(-c2nccc(Nc3ccc(F)cc3)n2)cc1,AC50,Cytochrome P450 3A4,10 µM (inconclusive)
O=C(CSc1nncn1-c1ccccc1)Nc1ccc(N2CCOCC2)cc1,AC50,Cytochrome P450 1A2,39.8 µM (inconclusive)
same,AC50,Cytochrome P450 2C9,12.6 µM (inconclusive)
same,AC50,Cytochrome P450 3A4,3.16 µM (inconclusive)
CCC(CO)Nc1nc2ccc(Cl)cc2c2ccccc12 (configuration not stated),CC50,[5],14.5 µM (active)
COc1ccccc1C(=O)Nc1ccc(S(=O)(=O)N2CCCCC2c2cccnc2)cc1 (configuration not stated),CC50,[5],31.9 µM (active)
Cc1ccccc1C(=O)c1c[nH]c(C(=O)NCc2cccs2)c1,AC50,Cytochrome P450 2C9,3.55 µM (inconclusive)
same,AC50,Cytochrome P450 2C19; read-out: AC50,25.1 µM (inconclusive)
same,AC50,Cytochrome P450 3A4,22.4 µM (inconclusive)
same,AC50,Cytochrome P450 2D6,14.1 µM (inconclusive)
COc1ccc2oc(C(=O)NCCC(C)C)c(C)c2c1,IC50,[3],> 47.1 µM (inactive)
same,EC50,[4],> 53 µM (inactive)
Nc1ccc(C(=O)c2cccs2)cc1[N+](=O)[O-],CC50,[5],36.8 µM (active)
CCCn1c(C(C)Nc2nc(-c3ccc(Cl)c([N+](=O)[O-])c3)cs2)nc2ccccc21 (configuration not stated),CC50,[5],29.7 µM (active)
O=C(NC(=S)Nc1ccccc1N1CCCCC1)c1ccc(F)cc1Cl,EC50,Streptokinase A,5.06 µM (active)
same,EC50,[6],3.75 µM (active)
same,EC50,Streptococcus,> 150 µM (not active)
same,AC50,[7],1.67 µM (active)
COc1cc(C(=O)N2CCC(NC(=O)C(Cc3ccc(C(C)C)cc3)NC(C)=O)CC2)cc(OC)c1OC (configuration not stated),AC50,Cytochrome P450 2C19; read-out: AC50,22.4 µM (inconclusive)
same,AC50,Cytochrome P450 3A4,17.8 µM (inconclusive)
O=C(CSc1nnc(-c2cccnc2)n1Cc1ccccc1)N1CCOCC1,EC50,[1],> 112 µM (not active)
same,EC50,[2],17.2 µM (active)
O=C(c1ccccc1)c1nc2ccccc2nc1O,IC50,[3],> 47.1 µM (inactive)
same,EC50,[4],> 53 µM (inactive)
CCN(CC(=O)NCc1ccc(Cl)cc1)C(=O)CSc1ccc(Br)cc1,EC50,[1],43.9 µM (active)
same,EC50,[2],> 112 µM (not active)
COc1ccccc1NC(=O)C1=C(C)Nc2nnnn2C1c1ccccc1OC (configuration not stated),EC50,[1],> 112 µM (not active)
same,EC50,[2],72.3 µM (active)
COc1cccc(NC(=O)C2CCCN(S(=O)(=O)c3ccc(-n4cnnn4)cc3)C2)c1 (configuration not stated),IC50,[3],> 47.1 µM (inactive)
same,EC50,[4],> 53 µM (inactive)
CCOC(=O)c1nnn(-c2nonc2N)c1CN(C)C1CCCCC1,IC50,[3],> 47.1 µM (inactive)
same,EC50,[4],> 53 µM (inactive)
Cn1c(SCC(=O)N2CCCC2)nnc1-c1cccs1,EC50,[1],> 112 µM (not active)
same,EC50,[2],> 112 µM (not active)
CCOC(=O)CSc1nc(O)c2c(n1)-c1ccccc1CC2(C)CC (configuration not stated),AC50,INS1,40.1 µM (active)
CC(=O)OCCNC(=O)Cn1cnc2c1c(=O)n(C)c(=O)n2C,EC50,[1],> 112 µM (not active)
same,EC50,[2],> 112 µM (not active)
Cc1cc(C)c(NC(=O)CSc2ccc3nnc(CCNC(=O)c4ccccc4)n3n2)c(C)c1,EC50,[1],> 112 µM (not active)
same,EC50,[2],> 112 µM (not active)
O=C(c1cccc(S(=O)(=O)N2CCOCC2)c1)N1CCN(c2ccc(F)cc2)CC1,EC50,[1],> 112 µM (not active)
same,EC50,[2],> 112 µM (not active)
Cc1ccc(NC(=O)CCc2c(C)nc3ncnn3c2C)nc1,AC50,Cytochrome P450 2C19,inconclusive
same,AC50,Cytochrome P450 3A4,15.8 µM (inconclusive)
Cc1cc(Nc2nc3ccccc3nc2O)n(-c2ccccc2)n1,CC50,[5],16.6 µM (active)
COc1ccc(C(=O)Nc2ccc(C3CC3(Cl)Cl)cc2)cc1 (configuration not stated),IC50,[3],> 47.1 µM (inactive)
same,EC50,[4],> 53 µM (inactive)
COc1ccc(-n2c(=O)cnc3cnc(N(C)C)nc32)cc1,AC50,Cytochrome P450 2C19; read-out: AC50,39.8 µM (inconclusive)
same,AC50,Cytochrome P450 3A4,39.8 µM (inconclusive)
Cc1nc2cnc(N3CCOCC3)nc2n(Cc2cccs2)c1=O,AC50,Cytochrome P450 2C9,15.8 µM (inconclusive)
same,AC50,Cytochrome P450 3A4,7.94 µM (inconclusive)
same,AC50,Cytochrome P450 2D6,39.8 µM (inconclusive)
Cc1ccc2nc(N=C(N)NC(=O)N3c4ccccc4Sc4ccccc43)nc(C)c2c1,CC50,[5],12.8 µM (active)
Cn1c(=S)oc2ccccc21,EC50,[1],> 112 µM (not active)
same,EC50,[2],> 112 µM (not active)
COc1ccc(CNc2ncnc3ccc(-c4ccc5c(c4)OCO5)cc23)c(OC)c1,AC50,Cytochrome P450 3A4,0.794 µM (active)
same,AC50,Cytochrome P450 2D6,2.51 µM (active)
CC(=O)Nc1ccc(OCC(O)CN2C(C)(C)CC(O)CC2(C)C)cc1 (configuration not stated),IC50,[3],> 47.1 µM (inactive)
same,EC50,[4],> 53 µM (inactive)
COc1ccc(NC(=O)CN(C)C(=O)c2cccc(S(=O)(=O)N3CCN(c4ccc(F)cc4)CC3)c2)cc1,IC50,[3],> 47.1 µM (inactive)
same,EC50,[4],> 53 µM (inactive)
CC(C)N1CCN(Cc2nc(-c3ccccc3)cs2)CC1CCO (configuration not stated),IC50,[3],> 47.1 µM (inactive)
same,EC50,[4],> 53 µM (inactive)
O=C(CSc1nc(-c2ccco2)cc(C(F)(F)F)n1)NCCCN1CCOCC1,IC50,[3],> 47.1 µM (inactive)
same,EC50,[4],> 53 µM (inactive)
Cc1ccc(C(=O)N/N=C\c2cccn2C)cn1,AC50,Cytochrome P450 2C9,89.1 µM (inconclusive)
same,AC50,Cytochrome P450 3A4,0.316 µM (inconclusive)
NC(=S)N/N=C/c1c(O)c(Br)cc2oc3c(c12)CCCC3,AC50,INS1,0.819 µM (active)
CC/C(=N\NC(N)=O)c1ccc(OC(F)F)cc1,CC50,[5],27.5 µM (active)
CP(=O)(O)C1=CCNCC1,AC50,Cytochrome P450 3A4,39.8 µM (inconclusive)
Cc1cc(C)cc(C(=O)N(C)[C@H](Cc2ccc(-c3ccccc3)cc2)C(=O)N[C@@H](Cc2c[nH]c3ccccc23)C(=O)O)c1,AC50,Cytochrome P450 1A2,39.8 µM (inconclusive)
same,AC50,Cytochrome P450 3A4,25.1 µM (inconclusive)
COc1cc(N)c(Cl)cc1C(=O)OCCCN1CCCCC1,AC50,Cytochrome P450 3A4,25.1 µM (inconclusive)
